For 22 compounds, Kd results are on record in ChEMBL document CHEMBL3991601, “The target landscape of clinical kinase drugs” (Science, 2017).

Activity calls are given as the source filed them.

Broadly, the Kd is the concentration at which binding is half-saturated.

Assay [1] deals with T1, Serine/threonine-protein kinase ICK (Homo sapiens, UniProt Q9UPZ9).
T1 sequence (Q9UPZ9 whole entry): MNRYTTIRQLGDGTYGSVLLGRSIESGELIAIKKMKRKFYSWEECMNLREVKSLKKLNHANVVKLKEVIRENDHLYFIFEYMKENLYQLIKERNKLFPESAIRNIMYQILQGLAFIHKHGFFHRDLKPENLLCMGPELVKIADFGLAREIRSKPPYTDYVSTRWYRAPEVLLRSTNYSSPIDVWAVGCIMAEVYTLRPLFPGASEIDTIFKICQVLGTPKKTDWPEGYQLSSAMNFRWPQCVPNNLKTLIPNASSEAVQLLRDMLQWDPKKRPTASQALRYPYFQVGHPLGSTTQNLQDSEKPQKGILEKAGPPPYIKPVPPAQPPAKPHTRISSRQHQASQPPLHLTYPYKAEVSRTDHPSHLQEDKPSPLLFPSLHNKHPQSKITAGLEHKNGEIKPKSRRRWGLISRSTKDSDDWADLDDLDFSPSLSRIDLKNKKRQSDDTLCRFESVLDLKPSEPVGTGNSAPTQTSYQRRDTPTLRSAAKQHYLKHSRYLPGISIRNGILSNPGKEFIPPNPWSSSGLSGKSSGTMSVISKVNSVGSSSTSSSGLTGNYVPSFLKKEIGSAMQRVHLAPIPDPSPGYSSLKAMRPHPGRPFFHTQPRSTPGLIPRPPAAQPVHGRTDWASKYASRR

The target in assay [2] is T2, Serine/threonine-protein kinase Nek1 (Homo sapiens, UniProt Q96PY6).
T2 sequence (Q96PY6 whole entry): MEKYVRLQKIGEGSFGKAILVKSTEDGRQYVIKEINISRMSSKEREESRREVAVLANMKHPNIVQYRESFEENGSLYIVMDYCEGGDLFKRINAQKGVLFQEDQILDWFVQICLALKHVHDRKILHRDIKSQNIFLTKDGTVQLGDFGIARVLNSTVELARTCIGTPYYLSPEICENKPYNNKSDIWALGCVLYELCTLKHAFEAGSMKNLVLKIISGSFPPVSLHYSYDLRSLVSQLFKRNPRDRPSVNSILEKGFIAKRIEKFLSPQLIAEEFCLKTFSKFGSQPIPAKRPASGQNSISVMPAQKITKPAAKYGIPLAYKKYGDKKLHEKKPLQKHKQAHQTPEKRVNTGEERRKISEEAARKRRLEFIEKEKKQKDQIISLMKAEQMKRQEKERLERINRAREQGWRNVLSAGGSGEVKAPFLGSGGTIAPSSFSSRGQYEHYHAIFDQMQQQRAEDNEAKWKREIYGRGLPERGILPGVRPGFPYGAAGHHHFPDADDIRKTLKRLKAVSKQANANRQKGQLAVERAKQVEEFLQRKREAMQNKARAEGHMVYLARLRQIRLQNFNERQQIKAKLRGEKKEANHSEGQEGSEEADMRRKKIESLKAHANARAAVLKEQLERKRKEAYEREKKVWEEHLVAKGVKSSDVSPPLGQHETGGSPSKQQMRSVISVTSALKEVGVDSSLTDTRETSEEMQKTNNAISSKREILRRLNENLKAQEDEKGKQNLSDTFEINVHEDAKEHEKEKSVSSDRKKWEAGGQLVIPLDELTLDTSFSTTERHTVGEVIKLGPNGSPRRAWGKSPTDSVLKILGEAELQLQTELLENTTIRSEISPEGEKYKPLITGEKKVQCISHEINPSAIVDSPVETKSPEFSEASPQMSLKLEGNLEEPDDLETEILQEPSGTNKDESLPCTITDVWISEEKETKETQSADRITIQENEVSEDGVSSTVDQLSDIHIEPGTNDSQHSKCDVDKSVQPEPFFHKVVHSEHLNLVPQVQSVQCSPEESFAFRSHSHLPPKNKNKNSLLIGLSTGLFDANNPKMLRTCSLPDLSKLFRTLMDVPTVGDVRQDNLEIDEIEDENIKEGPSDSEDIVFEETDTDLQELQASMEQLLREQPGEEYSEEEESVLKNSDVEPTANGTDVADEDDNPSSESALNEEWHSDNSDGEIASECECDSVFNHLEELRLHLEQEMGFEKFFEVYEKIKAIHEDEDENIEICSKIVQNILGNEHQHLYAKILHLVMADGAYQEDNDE

Assay [3] deals with T3, Serine/threonine-protein kinase D3 (Homo sapiens, UniProt O94806).
T3 sequence (O94806 whole entry): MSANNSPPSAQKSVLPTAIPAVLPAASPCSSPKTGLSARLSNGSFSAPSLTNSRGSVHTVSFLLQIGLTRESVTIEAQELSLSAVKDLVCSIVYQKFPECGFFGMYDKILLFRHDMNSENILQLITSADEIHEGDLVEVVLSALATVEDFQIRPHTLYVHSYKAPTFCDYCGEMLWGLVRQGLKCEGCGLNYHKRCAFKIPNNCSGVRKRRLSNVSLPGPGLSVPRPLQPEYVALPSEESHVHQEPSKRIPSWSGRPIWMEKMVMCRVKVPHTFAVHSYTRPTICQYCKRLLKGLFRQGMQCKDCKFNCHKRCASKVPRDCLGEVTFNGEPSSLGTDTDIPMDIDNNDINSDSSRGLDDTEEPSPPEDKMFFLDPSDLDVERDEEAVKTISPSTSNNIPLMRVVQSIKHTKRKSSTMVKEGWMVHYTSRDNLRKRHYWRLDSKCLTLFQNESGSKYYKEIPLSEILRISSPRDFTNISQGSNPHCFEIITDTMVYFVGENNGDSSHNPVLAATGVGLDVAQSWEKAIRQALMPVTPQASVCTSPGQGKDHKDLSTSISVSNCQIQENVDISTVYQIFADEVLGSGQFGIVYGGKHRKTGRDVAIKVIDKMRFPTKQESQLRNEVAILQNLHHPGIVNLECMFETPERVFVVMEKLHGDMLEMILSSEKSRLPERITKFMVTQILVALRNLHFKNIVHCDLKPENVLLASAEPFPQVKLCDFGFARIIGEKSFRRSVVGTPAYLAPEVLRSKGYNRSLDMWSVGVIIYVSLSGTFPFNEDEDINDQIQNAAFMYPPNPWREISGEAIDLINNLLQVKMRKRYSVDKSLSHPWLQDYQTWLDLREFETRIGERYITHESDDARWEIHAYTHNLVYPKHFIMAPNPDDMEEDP

Assay [4] addresses T4, ADP/ATP translocase 3 (Homo sapiens, UniProt P12236).
T4 sequence (P12236 whole entry): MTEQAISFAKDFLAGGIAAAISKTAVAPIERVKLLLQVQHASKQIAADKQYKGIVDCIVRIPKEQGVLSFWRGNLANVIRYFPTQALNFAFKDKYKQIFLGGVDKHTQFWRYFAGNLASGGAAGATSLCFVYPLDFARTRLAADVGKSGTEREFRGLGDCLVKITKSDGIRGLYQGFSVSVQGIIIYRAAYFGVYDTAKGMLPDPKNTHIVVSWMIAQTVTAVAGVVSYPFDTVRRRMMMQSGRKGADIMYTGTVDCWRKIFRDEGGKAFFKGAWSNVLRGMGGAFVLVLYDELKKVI
Further: in the data inactive means no Kd found up to 30 µM.

For `CC[C@@H]1C(=O)N(C)c2cnc(Nc3ccc(C(=O)N[C@H]4CC[C@H](N5CCN(CC6CC6)CC5)CC4)cc3OC)nc2N1C(C)C` [VOLASERTIB], the Kd in assay [1], in assay [2], in assay [3] and in assay [4] was > 30 µM (inactive) throughout.
Turning to `Cc1ccc(S(=O)(=O)Nc2nc3ccccc3nc2Nc2ccc3nsnc3c2)cc1`, the Kd in assay [1], in assay [2], in assay [3] and in assay [4] was > 30 µM (inactive) throughout.
Regarding `Cn1cc(-c2ccc(F)c(C(F)(F)F)c2)nc1C1CCN(c2ncnc3[nH]ncc23)CC1` [LY-2584702], the Kd in assay [1], in assay [2], in assay [3] and in assay [4] was > 30 µM (inactive) each time.
For `COc1cc(OC)c(/C=C/S(=O)(=O)Cc2ccc(OC)c(NCC(=O)O)c2)c(OC)c1` [RIGOSERTIB], the Kd in assay [1], in assay [2], in assay [3] and in assay [4] was > 30 µM (inactive) in each case.
As to `CCn1c(=O)c(-c2cc[nH]n2)cc2c(C)nc(N)nc21` [VOXTALISIB], the Kd in assay [1], in assay [2], in assay [3] and in assay [4] was > 30 µM (inactive) throughout.
As to `OCCn1cc(-c2cnc3nnn(Cc4ccc5ncccc5c4)c3n2)cn1` [PF-04217903], the Kd in assay [1], in assay [2] and in assay [4] was > 30 µM (inactive) in each case.
Regarding `CO[C@H]1C[C@@H]2CC[C@@H](C)[C@@](O)(O2)C(=O)C(=O)N2CCCC[C@H]2C(=O)O[C@H]([C@H](C)C[C@@H]2CC[C@@H](OCCO)[C@H](OC)C2)CC(=O)[C@H](C)/C=C(\C)[C@@H](O)[C@@H](OC)C(=O)[C@H](C)C[C@H](C)/C=C/C=C/C=C/1C` [EVEROLIMUS], the Kd in assay [2], in assay [3] and in assay [4] was > 30 µM (inactive) throughout.
As for `CCCS(=O)(=O)Nc1ccc(F)c(C(=O)c2c[nH]c3ncc(-c4ccc(Cl)cc4)cc23)c1F` [VEMURAFENIB], the Kd in assay [1], in assay [2], in assay [3] and in assay [4] was > 30 µM (inactive) throughout.
Take `O=C(Nc1ccc(-c2ccnc(Nc3ccc(N4CCOCC4)cc3)n2)cc1)C1CCCN1` (configuration not stated) [XL-019]: the Kd was > 30 µM (inactive) in assay [1], > 30 µM (inactive) in assay [2], 2.96 µM (active) in assay [3] and > 30 µM (inactive) in assay [4].
For the compound `Cn1ncc(Cl)c1-c1cc(C(=O)N[C@H](CN)Cc2cccc(F)c2)sc1Cl` [AFURESERTIB], the Kd in assay [2], in assay [3] and in assay [4] was > 30 µM (inactive) in each case.
For `CNC(=O)CN1CCC(Oc2cc3c(Nc4cccc(Cl)c4F)ncnc3cc2OC)CC1` [SAPITINIB], the Kd in assay [1], in assay [2], in assay [3] and in assay [4] was > 30 µM (inactive) in each case.
For the compound `CCn1c(-c2nonc2N)nc2c(C#CC(C)(C)O)ncc(OC[C@H]3CCCNC3)c21` [GSK-690693], the Kd in assay [4] was > 30 µM (inactive).
For the compound `CC(=O)Nc1cccc(-n2c(=O)n(C3CC3)c(=O)c3c(Nc4ccc(I)cc4F)n(C)c(=O)c(C)c32)c1` [TRAMETINIB], the Kd in assay [1], in assay [2], in assay [3] and in assay [4] was > 30 µM (inactive) in each case.
As for `Cc1cc(Nc2cc(N3CCN(C)CC3)nc(/C=C/c3ccccc3)n2)n[nH]1` [ENMD-2076], the Kd in assay [1], in assay [2] and in assay [4] was > 30 µM (inactive) throughout.
Regarding `COC(=O)N[C@@H](C)CNc1nccc(-c2cn(C(C)C)nc2-c2cc(Cl)cc(NS(C)(=O)=O)c2F)n1` [ENCORAFENIB], the Kd in assay [1], in assay [2], in assay [3] and in assay [4] was > 30 µM (inactive) each time.
With `COC(=O)[C@@]1(O)C[C@H]2O[C@]1(C)n1c3ccccc3c3c4c(c5c6ccccc6n2c5c31)C(=O)NC4` [K-252A], the Kd in assay [1], in assay [2] and in assay [4] was > 30 µM (inactive) in each case.
`Nc1nc(N)c2nc(-c3cccc(O)c3)c(-c3cccc(O)c3)nc2n1` [TG100-115]: in assay [4], the Kd was > 30 µM (inactive).
The same measure, in the same setting: as for `CN1CCN(c2ccc3nc(-c4c(N)c5c(F)cccc5[nH]c4=O)[nH]c3c2)CC1` [DOVITINIB], the figure is > 30 µM (inactive).
With `O=C(Nc1cccc(Cl)c1)Nc1ncc(CCNc2ncnc3ccsc23)s1` [SNS-314], the Kd in assay [1], in assay [2] and in assay [4] was > 30 µM (inactive) each time.
`CCc1cnn2c(NCc3ccc[n+]([O-])c3)cc(N3CCCC[C@H]3CCO)nc12` [DINACICLIB]: the Kd is 0.271 µM (active) in assay [1], > 30 µM (inactive) in assay [2] and > 30 µM (inactive) in assay [4].
`Cc1nc(N)sc1-c1ccnc(Nc2ccc(N3CCOCC3)cc2)n1` [CYC-116]: the Kd in assay [2] was 1.1 µM (active); in assay [4], > 30 µM (inactive).
For `Cc1cn(-c2cc(NC(=O)c3ccc(C)c(Nc4nccc(-c5cccnc5)n4)c3)cc(C(F)(F)F)c2)cn1` [NILOTINIB], in assay [4], the Kd is > 30 µM (inactive).
